Measured values published in patent publication US20200179392A1, “Idelalisib for Treating Proliferative Vitreoretinopathy and Abnormal Intraocular Neovascularization” (priority 2016, published 2020).

Key:
[1] = test system: HRECs; assay: VEGF-induced tube formation assay in HRECs; type: cell-based, human; conditions: idelalisib 5 μM
Experimental: A tube formation assay was performed as previously described^63. A collagen gel mixture was added to a 96-well plate (70 μl/well), which was then incubated for about 60 minutes at 37° C. to let the collagen gel polymerize. After polymerization, 4.0×10^4 HRECs were seeded in each well with their cultured medium maintained at a 37° C. incubator. This day was considered day 1. On day 2, the medium was removed and 150 μl of the gel mixture was added to each well supplemented with VEGF, or VEGF plus idelalisib (5 μM). On days 3, three different fields per well were randomly chosen and photographed using the EVOS FL Auto microscope. The results in FIG. 10B are representative of three independent experiments^61, 64, 65. Each bar graph indicates mean±standard deviation of three independent experiments. “*” denotes significant difference between the two compared groups. P<0.05 using an unpaired t-test.

[2] = test system: HRECs; assay: VEGF-induced wound healing (migration) assay in HRECs; type: cell-based, human; conditions: VEGF 20 ng/ml, idelalisib 5 μM, 18 hours
Experimental: A wound healing assay was performed as previously described^62 with minor modifications. Once cells reached 90% confluence in 48-well plates, they were starved for growth factors for 7 hours. A wound was created by scraping the cell monolayer with a sterile pipette tip (200 μl). The cells were washed twice to remove detached cells and then treated with VEGF (20 ng/ml) or VEGF plus idelalisib (5 μM). The wound was photographed at 18 hours post wounding with an EVOS FL Auto microscope (Thermo Scientific) as shown in 8B from three independent experiments^61.

[3] = test system: RPEM cells; assay: Cell migration (scratch) assay, RPEM cells with vitreous; type: cell-based, human; conditions: idelalisib 5 μM, 16 hours
Experimental: 3C. After the RPEM cells in a 12-well plate reached 90% confluence, the cultured wells were scratched with a 200 μl pipet tip and treated with RV supplemented with idelalisib (5 μM) or its vehicle. 16 hours later the pictures of the cells were taken and analyzed. A representative raw data of three experiments below the bar graphs is shown. Scale bar: 500 μm. RPEM cells in a 12-well plate were grown to near confluence, and then the wells with 90% confluent cells were scratched with 200 μl pipet tip. The cells were washed with PBS and treated with DMEM/F12 or RV (1:2 dilution in DMEM/F12) with or without idelalisib (5 μM). The scratched area was photographed to capture the initial width and photographed again 16 hours later. Analysis was conducted using Adobe Photoshop CS4 software. At least three independent experiments were performed.

[4] = test system: PVR induced by RPEM cells; assay: Experimental PVR in rabbits; type: in vivo, rabbit
Experimental: PVR was induced in the right eyes of two to three-month-old Dutch Belted pigmented rabbits. Briefly, one week after gas vitrectomy, rabbits were intravitreally injected with platelet-rich plasma (PRP, 0.1 ml) and RPEM cells (300,000 cells) supplemented with either idelalisib (10 μM) or its vehicle (0.1% DMSO). Subsequently, the rabbits were examined at the indicated times and PVR stage was evaluated using a double blind approach with an indirect ophthalmoscope through a 30D lens, and then the PVR status for each rabbit was plotted (4A). The […] values are indicated at the top of the figure after a Mann-Whitney analysis. Representative rabbits on day 28 were examined by eletroretinography (ERG) (4B), optical coherence tomography (OCT) (4C) and histological analysis by hematoxylin & eosin stain (4D). The numbers in C and D (0, 2, 3, and 5) denote PVR stages in the examined rabbits. Single arrow points to the retina and double arrows point to cellular fibrotic membranes (4C). Arrowhead and double arrows indicate cellular membranes (4D).
As previously described^1, 55, PVR was induced in right eyes of two-three months old Dutch Belted rabbits purchased from Covance (Denver, Pa.). Briefly, a gas vitrectomy was performed by injecting 0.1 ml of perfluoropropane (C3F8) (Alcon, Fort Worth, Tex.) into the vitreous cavity 4 mm posterior to the corneal limbus. […]

CC[C@H](Nc1ncnc2[nH]cnc12)c1nc2cccc(F)c2c(=O)n1-c1ccccc1 [idelalisib]
effect on VEGF-stimulated tube formation of HRECs [1]: completely blocked
effect on VEGF-stimulated migration of HRECs [2]: completely blocked
effect on vitreous-induced migration of RPEM cells [3]: prevented
rabbits developing to PVR stage 3 ([4]; idelalisib 10 μM intravitreal with PRP and RPEM cells): one of nine
effect on pathogenesis of PVR ([4]; idelalisib 10 μM intravitreal, days 7, 14, 21 and 28, Mann-Whitney): significantly suppressed
